Experimental data taken from paper PMC4957648 (Journal of medicinal chemistry, 2016).
Values after ≈ are worked out from the molar mass of the structure shown.

How the values were obtained:
[1] = test system: CFTR; settings: from purified Cif protein and P. aeruginosa PA14; ref 5b; cited from earlier work
[2] = target: T1, Cif (Pseudomonas aeruginosa, UniProt A0A0H2ZD27); assay: Fluorescent-based Cif inhibitory assay; type: biochemical
[3] = test system: thyroid hormone receptor; assay: Thyroid hormone activity assay, agonist mode; type: cell-based; settings: for EC50: read-out: TR agonist EC50, GH3.TRE-Luc cells
[4] = target: T2, Human sEH (Homo sapiens, UniProt P34913); assay: biochemical
T2 sequence (P34913 1-555): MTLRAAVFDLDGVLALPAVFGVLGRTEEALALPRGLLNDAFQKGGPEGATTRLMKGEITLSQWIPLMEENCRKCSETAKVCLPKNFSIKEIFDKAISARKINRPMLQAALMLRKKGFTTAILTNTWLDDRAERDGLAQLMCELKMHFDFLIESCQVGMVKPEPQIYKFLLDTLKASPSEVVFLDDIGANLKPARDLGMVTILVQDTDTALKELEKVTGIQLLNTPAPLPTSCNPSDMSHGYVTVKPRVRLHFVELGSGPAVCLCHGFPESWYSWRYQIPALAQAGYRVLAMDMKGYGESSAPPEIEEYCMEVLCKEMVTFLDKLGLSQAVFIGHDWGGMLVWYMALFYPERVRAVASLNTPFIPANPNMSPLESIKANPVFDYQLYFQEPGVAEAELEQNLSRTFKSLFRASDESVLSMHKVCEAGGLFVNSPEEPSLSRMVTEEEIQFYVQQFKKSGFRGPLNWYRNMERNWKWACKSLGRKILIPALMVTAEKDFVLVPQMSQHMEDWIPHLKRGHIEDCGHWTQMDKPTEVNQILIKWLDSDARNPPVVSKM

[5] = target: T1, Cif; assay: Surface plasmon resonance binding to immobilized Cif
[6] = test system: GH3.TRE-Luc cells; assay: Cytotoxicity in GH3.TRE-Luc cells; type: cell-based; settings: concentrations up to 10 μM
[7] = test system: polarized monolayers of airway epithelial cells; assay: Cytotoxicity in polarized airway epithelial monolayers; type: cell-based; settings: concentrations up to 10 μM
[8] = Solubility under Cif assay conditions; type: physicochemical
[9] = Human liver microsomal stability; type: in vitro ADME; settings: liver microsomes

T1 sequence (A0A0H2ZD27 25-319 limits assumed): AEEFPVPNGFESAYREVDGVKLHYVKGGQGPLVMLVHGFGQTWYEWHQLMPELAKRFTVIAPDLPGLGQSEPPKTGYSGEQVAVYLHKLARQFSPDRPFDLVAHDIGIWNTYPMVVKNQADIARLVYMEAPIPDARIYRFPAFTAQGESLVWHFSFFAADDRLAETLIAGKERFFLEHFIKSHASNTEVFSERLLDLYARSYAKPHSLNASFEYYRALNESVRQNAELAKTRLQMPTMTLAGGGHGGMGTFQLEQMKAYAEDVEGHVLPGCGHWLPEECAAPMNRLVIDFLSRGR

Compound	increase in Cif inhibitory potency over lead compound [2]	EC50 [3]	residence time [5]	solubility [8]	also measured
O=C(O)Cc1cc(I)c(Oc2ccc(O)c(I)c2)c(I)c1 [tiratricol]	–	–	–	–	protection of CFTR [1]: protects CFTR
CCC(=O)Nc1cc(Cl)c(Oc2ccc(O)c(-c3ccc(C(N)=O)cc3)c2)c(Cl)c1 [Compound 8c, 5′-(2,6-Dichloro-4-propionamidophenoxy)-2′-hydroxy-[1,1′-biphenyl]-4-carboxamide]	~10 fold	> 10 µM	0.0333 to 0.0667 min	–	IC50 [4]: ~8 µM; cytotoxicity [6]: neither 8c nor 8h showed cytotoxicity; cytotoxicity [7]: neither 8c nor 8h showed cytotoxicity
CCC(=O)Nc1cc(Br)c(Oc2ccc(O)c(C(C)C)c2)c(Br)c1 [Compound 1c]	–	–	–	–	thyroid hormone activity (compounds with different R1) [3]: lowest thyroid hormone activity
CCOC(=O)CC(=O)Nc1cc(Br)c(Oc2ccc(OC)c(C(C)C)c2)c(Br)c1 [Compound 1h]	–	–	–	25 to 50 µM (≈ 13.2 to 26.5 µg/mL)	Cif inhibitory activity ([2]; at 50 μM or 25 μM): failed to show inhibitory activity
CCOC(=O)CC(=O)Nc1cc(Br)c(Oc2cccc(C(C)C)c2)c(Br)c1 [Compound 1g]	–	–	–	50 to 100 µM (≈ 25 to 49.9 µg/mL)	Cif inhibitory activity ([2]; at 50 μM or 25 μM): failed to show inhibitory activity
CCC(=O)Nc1cc(Cl)c(Oc2ccc(O)c(-c3ccc(NC(N)=O)cc3)c2)c(Cl)c1 [Compound 8h]	~10 fold	> 10 µM	0.0333 to 0.0667 min	–	IC50 [4]: ~8 µM; cytotoxicity [6]: neither 8c nor 8h showed cytotoxicity; cytotoxicity [7]: neither 8c nor 8h showed cytotoxicity
CCC(=O)Nc1cc(Cl)c(Oc2ccc(O)c(-c3ccccc3)c2)c(Cl)c1 [Compound 8a]	–	–	–	–	half-life [9]: > 1 h
CCC(=O)Nc1cc(Cl)c(Oc2ccc(O)c(-c3ccc(C(C)=O)cc3)c2)c(Cl)c1 [Compound 8j]	~10 fold	> 10 µM	0.0333 to 0.0667 min	–	–
CCOC(=O)CC(=O)Nc1cc(Cl)c(Oc2ccc(O)cc2)c(Cl)c1 [Compound 1k]	–	–	–	50 to 100 µM (≈ 19.2 to 38.4 µg/mL)	Cif inhibitory activity ([2]; at 50 μM): no inhibition
